Experiment: solubility of sunitinib base (applicants' observation)
Assay type: physicochemical
Conditions: qualitative; dissolution in solvents for salt preparation
From the text: In this regard, the low solubility of sunitinib base requires large amounts of solvents or mixture of solvents and/or the use of particular harsh conditions aimed to increase the solubility of sunitinib base and/or reduce long reaction times, which represents a significant drawback, especially for industrial scale-up. Further, solid sunitinib base is difficult to handle since it is a very fine powder which is difficult to filter and isolate.

- solubility profile: low solubility profile
Compound: CCN(CC)CCNC(=O)c1c(C)[nH]c(/C=C2\C(=O)Nc3ccc(F)cc32)c1C [sunitinib base, N-[2-(diethylamino)ethyl]-5-[(Z)-(5-fluoro-1,2-dihydro-2-oxo-3H-indol-3-yliden)methyl]-2,4-dimethyl-1H-pyrrole-3-carboxamide]

Reference: US8153678B2, “Process for preparing A 3-pyrrole substituted 2-indolinone malate salt” (Medichem, S.A., priority 2008, dated 2012)
